The target in assay [1] is T1, Receptor-type tyrosine-protein kinase FLT3 (Homo sapiens, UniProt P36888).
T1 sequence (P36888 whole entry): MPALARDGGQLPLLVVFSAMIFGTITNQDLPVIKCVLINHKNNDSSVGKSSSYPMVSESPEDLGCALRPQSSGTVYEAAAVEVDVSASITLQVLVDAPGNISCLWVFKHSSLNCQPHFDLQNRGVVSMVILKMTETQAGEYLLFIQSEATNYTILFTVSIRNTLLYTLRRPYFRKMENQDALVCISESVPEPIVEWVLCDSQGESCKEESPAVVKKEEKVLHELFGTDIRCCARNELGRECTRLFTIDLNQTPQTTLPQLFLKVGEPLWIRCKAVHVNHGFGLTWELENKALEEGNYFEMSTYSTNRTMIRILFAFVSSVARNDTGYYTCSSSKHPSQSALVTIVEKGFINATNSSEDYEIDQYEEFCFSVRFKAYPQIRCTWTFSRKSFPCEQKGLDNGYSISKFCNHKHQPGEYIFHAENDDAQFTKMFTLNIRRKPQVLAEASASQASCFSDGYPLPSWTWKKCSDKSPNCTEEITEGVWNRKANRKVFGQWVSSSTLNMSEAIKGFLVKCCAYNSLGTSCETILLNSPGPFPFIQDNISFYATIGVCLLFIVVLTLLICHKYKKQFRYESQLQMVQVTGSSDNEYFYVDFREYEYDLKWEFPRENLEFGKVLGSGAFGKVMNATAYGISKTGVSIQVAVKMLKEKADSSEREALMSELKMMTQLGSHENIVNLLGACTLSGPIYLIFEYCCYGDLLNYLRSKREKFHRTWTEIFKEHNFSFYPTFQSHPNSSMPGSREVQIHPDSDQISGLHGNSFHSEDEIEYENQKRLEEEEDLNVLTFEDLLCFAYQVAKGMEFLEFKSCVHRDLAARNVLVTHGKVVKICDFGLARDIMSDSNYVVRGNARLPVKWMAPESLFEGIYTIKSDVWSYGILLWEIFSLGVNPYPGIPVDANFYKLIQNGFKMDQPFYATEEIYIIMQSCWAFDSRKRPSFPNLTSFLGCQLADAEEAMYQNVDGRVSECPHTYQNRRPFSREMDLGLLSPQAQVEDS
The assay is described as follows: Inhibition of FLT3 (unknown origin) preincubated with compound for 10 mins followed by substrate addition and measured after 1 hrs by ADP-Glo kinase assay. Background: In ADP-Glo the light output rises with the ADP produced.

In another assay the test system is MV4-11. The assay is described as follows: Antiproliferative activity against human MV4-11 cells harboring FLT3-ITD mutant assessed as cell growth inhibition measured after 72 hrs by CCK8 assay. The following applies: MV4-11, 72 h.

We go through one molecule from ChEMBL document CHEMBL5113503, “Synthesis and biological evaluation of 4-(4-aminophenyl)-6-methylisoxazolo[3,4-b] pyridin-3-amine covalent inhibitors as potential agents for the treatment of acute myeloid leukemia” (Bioorg Med Chem, 2022).

By IC50 is commonly meant the concentration at which inhibition is half-maximal.

Molecules are shown by their SMILES.

Regarding `C=CC(=O)Nc1ccc(NC(=O)Nc2ccc(-c3cc(C)nc4noc(N)c34)cc2)cc1`, the half-maximal inhibitory concentration (IC50) in assay [1] was 256 nM; with MV4-11, 325 nM.
